Tests used:
[1] = test system: human peripheral blood mononuclear cells (PBMC); experiment: LPS-stimulated TNF and IL-6 secretion by ELISA in PBMC; assay type: cell-based; settings: overnight increasing doses of FK866, LPS 6 h
Description: (§1) Human monocytic cell line THP-1, human peripheral blood mononuclear cells (PBMC), human monocyte-derived dendritic cells, or mouse peritoneal macrophages were isolated and cultured overnight with increasing doses of FK866, and then stimulated with LPS for 6 h. The culture supernatants were tested for TNF and IL-6 content by ELISA
as §1, with “This example describes the inhibition of pro-inflammatory cytokines production by the competitive small molecular weight compound inhibitor of NMPRT, ((E)-N-[4-(1-benzoylpiperidin-4-yl)butyl]-3-(pyridin-3-yl)acrylamide, designated FK866). Human” for “Human”, “ELISA.” for “ELISA”

RAW264.7 cell line [2] = experiment: Intracellular NAD by enzymatic assay in RAW264.7 cells; assay type: cell-based, mouse; settings: RAW264.7, overnight increasing doses of FK866, LPS 2 h
Description: (§2) (A) The mouse macrophage cell line RAW264.7 was cultured overnight with increasing doses of FK866, and then stimulated with LPS for 2 h. The culture supernatants were tested for TNF content by ELISA and intracellular NAD levels were measured by an enzymatic assay.
(§3) (B) RAW264.7 cells were cultured overnight in the presence of FK866 and the intracellular pool of NAD was restored by co-incubation of the cells with nicotinic acid (NA). Cells were then stimulated with LPS for 2 h and the culture supernatant was tested for TNF content by ELISA.
(§4) (C) RAW264.7 cells were cultured overnight in the presence of FK866 and NAD levels were maintained by culturing the cells in the presence of extracellular NAD. Cells were then stimulated with LPS for 2 h and the culture supernatant was tested for TNF content by ELISA.
as §2, with “This example illustrates the correlation between proinflammatory cytokine secretion and NAD levels in the cell.” for “(A)”
as §3, with “In another experiment,” for “(B)”, “nicotinic acid. Nicotinic” for “nicotinic”, “is a precursor of NAD, but its transformation into NAD is not dependent upon NMPRT and is thus not inhibited by FK866.” for “(NA).”
(§5) In another experiment, RAW264.7 cells were cultured overnight in the presence of FK866 and NAD levels were maintained by culturing the cells in the presence: of extra-cellular NAD. Cells were then stimulated with LPS for 2 h and the culture supernatant was tested for TNF content by ELISA.

RAW264.7 cell line [3] = experiment: LPS-stimulated TNF secretion by ELISA in RAW264.7 cells; assay type: cell-based, mouse
Description: The murine RAW264.7 cell line was stimulated with LPS in the presence of FK866. TNF protein concentrations were determined by ELISA (above panel) while mRNA levels were determined by RT-PCR (below panel).
as §2, §3, §4
This example illustrates that FK866 inhibits TNFα secretion at a posttranscriptional level. The murine RAW 264.7 cell line was incubated in the presence of graded doses of FK866, stimulated with microbial products, and levels of TNFα released in the supernatant evaluated by ELISA.
as §2, with “This example illustrates the correlation between proinflammatory cytokine secretion and NAD levels in the cell.” for “(A)”
as §3, with “In another experiment,” for “(B)”, “nicotinic acid. Nicotinic” for “nicotinic”, “is a precursor of NAD, but its transformation into NAD is not dependent upon NMPRT and is thus not inhibited by FK866.” for “(NA).”
as §5

Human PBMC = experiment: MTT cell viability assay in PBMC; assay type: cell-based; settings: overnight increasing doses of FK866, LPS 6 h
Description: (§6) (A) Human PBMC were isolated and cultured overnight with increasing doses of FK866, and then stimulated with LPS for 6 h. At the end of the culture, cell viability was assessed using the MTT (3-(4,5-Dimethylthiazol-2-yl)-2,5-diphenyltetrazolium bromide) assay.
as §6, with “This example illustrates that the inhibition of proinflammatory cytokine secretion induced by lowering intracellular NAD levels is not due to apoptosis induction.” for “(A)”

[4] = Toxicity and tolerability in treated CIA mice (weight, histopathology, ALT, hematology); assay type: in vivo, mouse
Description: Test mice (n=20) were twice daily treated ip with 10 mg/kg of FK866 from the first day onward of appearance of clinical arthritis (clinical score>1) during 14 days. Placebo mice (n=20) received vehicle only. Groups of animals were compared with respect to variation of their clinical scoring, and of their weight (d) by statistical analysis using the two-way ANOVA. A semi-quantitative histological evaluation was performed on the knee sections using a 4 points (0-3) scoring system to evaluate inflammatory infiltrate and synovial hyperplasia. (c) Circulating SAA levels: Sera from placebo- and FK866-treated CIA mice at day 14 (n=8 and n=7, respectively) were prepared and analyzed by SAA ELISA according to the manufacturer's instructions.

## O=C(/C=C/c1cccnc1)NCCCCC1CCN(C(=O)c2ccccc2)CC1 [FK866, (E)-N-[4-(1-benzoylpiperidin-4-yl)butyl]-3-(pyridine-3-yl)-acrylamide]
[1]
  cytokine secretion (TNF and IL-6): inhibited cytokine secretion in a dose-dependent fashion
RAW264.7 cell line [2]
  intracellular NAD levels: inhibition of intracellular NAD levels
RAW264.7 cell line [3]; RAW 264.7, graded doses of FK866, stimulated with LPS, ELISA
  TNFα secretion: strongly inhibited
RAW264.7 cell line [3]; RAW264.7, overnight increasing doses of FK866, LPS 2 h
  TNF production: inhibition of TNF production
Human PBMC
  cell viability (MTT): not affected
[4]; CIA mice, 10 mg/kg ip twice daily
  tolerability: well tolerated
[4]; CIA mice, 10 mg/kg ip twice daily, 14 days
  signs of toxicity: no signs of toxicity
[4]; hematology of treated CIA mice
  % LYMPHO, mean: 60%
  % MONO, mean: 10.4%
  % NEUTRO, mean: 29.7%
  HCT, mean: 52.8%
  HGB, mean: 14.1 g/dL
  PLT, mean: 1688 10^3/mm^3
  RBC, mean: 9.4 10^3/mm^3
  WBC, mean: 11.5 10^6/mm^3
[4]; placebo- vs FK866-treated groups
  weight of the mice: comparable
[4]; treated group
  premature death: no premature death
[4]; treated vs control mice
  hematological examination: similarity between the treated and control mice
[4]; vs control animals
  histopathology of liver, spleen, lung, gut, kidney, inguinal lymph nodes and brain: no different from control animals

Source: patent US20090325923A1, “NEW METHOD FOR THE TREATMENT OF INFLAMMATORY DISEASES” (TOPOTARGET SWITZERLAND SA, priority 2006, published 2009)
